Laboratory results taken from patent US20230089867A1, “CYCLIC PENTAMER COMPOUNDS AS PROPROTEIN CONVERTASE SUBTILISIN/KEXIN TYPE 9 (PCSK9) INHIBITORS FOR THE TREATMENT OF METABOLIC DISORDER” (Novartis AG, priority 2018, published 2023).
Read-outs that look alike come from different tables or passages of the source.

Tests used:
[1] = amide bond, 18-membered ring, HATU/HOAt/2,6-lutidine, DCM
[2] = target: human PCSK9 (Homo sapiens, UniProt Q8NBP7); assay: PCSK9 ligand binding TR-FRET assay (interference with binding of human PCSK9 to human LDLR); details: for Max % inhibition: PCSK9 FRET assay, efficacy (Amax), 100% = 1 uM unlabeled human PCSK9, 0% = DMSO; for IC50: TR-FRET, human PCSK9 Alexa Fluor 647 / human LDLR extracellular domain-Europium Kryptate, read-out: PCSK9 FRET Assay IC50
Summary of the method: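 Threefold compound dilutions were pre-incubated 30 min with PCSK9, after which 4 nM Europium Kryptate-tagged human LDLR ectodomain was added for a further 2 h.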

Chain of human PCSK9 (Q8NBP7 153-692): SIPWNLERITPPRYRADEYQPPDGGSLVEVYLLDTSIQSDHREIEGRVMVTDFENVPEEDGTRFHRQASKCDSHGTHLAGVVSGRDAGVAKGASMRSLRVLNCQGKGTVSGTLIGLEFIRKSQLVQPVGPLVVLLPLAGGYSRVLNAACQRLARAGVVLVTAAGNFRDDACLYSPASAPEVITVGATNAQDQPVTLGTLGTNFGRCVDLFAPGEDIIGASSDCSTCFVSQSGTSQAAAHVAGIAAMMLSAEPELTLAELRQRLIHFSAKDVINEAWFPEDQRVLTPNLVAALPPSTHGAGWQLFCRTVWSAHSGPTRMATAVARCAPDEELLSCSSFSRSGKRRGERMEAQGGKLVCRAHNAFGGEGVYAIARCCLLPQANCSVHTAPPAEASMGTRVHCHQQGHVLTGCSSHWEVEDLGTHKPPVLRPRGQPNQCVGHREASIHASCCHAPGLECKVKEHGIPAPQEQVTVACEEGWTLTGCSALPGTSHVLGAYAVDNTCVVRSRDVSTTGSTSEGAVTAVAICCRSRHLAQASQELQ
Chain of human PCSK9 (Q8NBP7 31-152 partner limits assumed): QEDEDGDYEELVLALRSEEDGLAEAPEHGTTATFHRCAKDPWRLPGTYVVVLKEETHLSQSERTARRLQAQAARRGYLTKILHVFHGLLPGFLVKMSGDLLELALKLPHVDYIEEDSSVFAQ

Structure (SMILES) | Max % inhibition [2] [%] | IC50 [2] [nM] | also measured
COC[C@@H]1NC(=O)[C@H](C)N(Cc2ccc(Cl)cc2Oc2ccc(-c3cnc(CN(C)C)n3C)cc2)C(=O)C[C@@H](Cc2ccccc2)C(=O)N(C)C2CCOCC2NC(=O)C[C@H](Cc2ccc(Cl)cc2)N(C)C1=O (some centres unmarked) | – | – | ring closure, isolated yield ([1]; from (3R)-3-benzyl-4-((3-((S)-3-((S)-2-((S)-2-((4-chloro-2-(4-(2-((dimethylamino)methyl)-1-methyl-1H-imidazol-5-yl)phenoxy)benzyl)amino)propanamido)-3-methoxy-N-methylpropanamido)-4-(4-chloro phenyl)butanamido)tetrahydro-2H-pyran-4-yl)(methyl)amino)-4-oxobutanoic acid, 45.0 °C): 17%
COC[C@@H]1NC(=O)[C@H](CCNC(=O)OC(C)(C)C)N(Cc2ccc(Cl)cc2Oc2ccc(-c3cnc(CN(C)C)n3C)cc2)C(=O)C[C@@H](Cc2ccccc2)C(=O)N(C)[C@H]2CCCC[C@@H]2NC(=O)C[C@H](Cc2ccc(Cl)cc2)N(C)C1=O | – | – | ring closure, isolated yield ([1]; from (R)-3-Benzyl-4-(((1S,2S)-2-((8S,11S,14S)-8-((4-chloro-2-(4-(2-((dimethylamino)methyl)-1-methyl-1H-imidazol-5-yl)phenoxy)benzyl)amino)-14-(4-chlorobenzyl)-11-(methoxymethyl)-2,2,13-trimethyl-4,9,12-trioxo-3-oxa-5,10,13-triazahexadecan-16-amido)cyclohexyl)(methyl)amino)-4-oxobutanoic acid, 0.845 mM, 45.0 °C): 59.6%
COC[C@@H]1NC(=O)[C@H](C)N(Cc2ccc(Cl)cc2Oc2ccc(-c3cnc(CN(C)C)n3C)cc2)C(=O)C[C@@H](Cc2ccccc2)C(=O)N(C)C2CC2NC(=O)C[C@H](Cc2ccc(Cl)cc2)N(C)C1=O.O=C(O)C(F)(F)F (mixture of isomers) [Compound 147, (5S,8S,11S,15R)-15-benzyl-12-(4-chloro-2-(4-(2-((dimethylamino)methyl)-1-methyl-1H-imidazol-5-yl)phenoxy)benzyl)-5-(4-chlorobenzyl)-8-(methoxymethyl)-6,11,17-trimethyl-2,6,9,12,17-pentaazabicyclo[16.1.0]nonadecane-3,7,10,13,16-pentaone trifluoroacetate] | 104.16 | 3.7 | ring closure, isolated yield ([1]; from (3R)-3-benzyl-4-((2-((S)-3-((S)-2-((S)-2-((4-chloro-2-(4-(2-((dimethylamino)methyl)-1-methyl-1H-imidazol-5-yl)phenoxy)benzyl)amino)propanamido)-3-methoxy-N-methylpropanamido)-4-(4-chlorophenyl)butanamido)cyclopropyl)(methyl)amino)-4-oxobutanoic acid?, 45.0 °C): 19%
CCc1ccc(CN2C(=O)C[C@@H](Cc3ccccc3)C(=O)N(C)[C@@H](C)CNC(=O)C[C@H](Cc3ccc(Cl)cc3)N(C)C(=O)[C@H](COC)NC(=O)[C@@H]2CCF)c(Oc2ccc(-c3cnc(CN4CCCC4)n3C)cc2)c1 [Compound 26, (2S,5S,8S,13S,16R)-16-benzyl-8-(4-chlorobenzyl)-1-(4-ethyl-2-(4-(1-methyl-2-(pyrrolidin-1-ylmethyl)-1H-imidazol-5-yl)phenoxy)benzyl)-2-(2-fluoroethyl)-5-(methoxymethyl)-7,13,14-trimethyl-1,4,7,11,14-pentaazacyclooctadecane-3,6,10,15,18-pentaone] | 104.11 | 2.4 | ring closure, isolated yield ([1]; from (3S,6S,9S,14S,17R)-17-benzyl-9-(4-chlorobenzyl)-1-(4-ethyl-2-(4-(1-methyl-2-(pyrrolidin-1-ylmethyl)-1H-imidazol-5-yl)phenoxy)phenyl)-3-(2-fluoroethyl)-6-(methoxymethyl)-8,14,15-trimethyl-4,7,11,16-tetraoxo-2,5,8,12,15-pentaazanonadecan-19-oic acid, 0.238 mM, 39.0 °C): 47%
CCOC[C@@H]1NC(=O)[C@H](C)N(Cc2ccc(Cl)cc2Oc2ccc(-c3cnc(CN(C)C)n3C)cc2)C(=O)C[C@@H](C)C(=O)N(C)[C@@H](C)CNC(=O)C[C@H](Cc2ccc(Cl)cc2)N(C)C1=O.O=CO [Compound 53, (2S,5S,8S,13S,16R)-1-(4-chloro-2-(4-(2-((dimethylamino)methyl)-1-methyl-1H-imidazol-5-yl)phenoxy)benzyl)-8-(4-chlorobenzyl)-5-(ethoxymethyl)-2,7,13,14,16-pentamethyl-1,4,7,11,14-pentaaza cyclooctadecane-3,6,10,15,18-pentaone formate] | 92.32 | 21.1 | ring closure, isolated yield ([1]; from (3S,6S,9S,14S,17R)-1-(4-chloro-2-(4-(2-((dimethylamino)methyl)-1-methyl-1H-imidazol-5-yl)phenoxy)phenyl)-9-(4-chlorobenzyl)-6-(ethoxymethyl)-3,8,14,15,17-pentamethyl-4,7,11,16-tetraoxo-2,5,8,12,15-pentaazanonadecan-19-oic acid hydrochloride, 1.27 mM, 45.0 °C): 9%
COC[C@@H]1NC(=O)[C@H](C)N(Cc2ccc(Cl)cc2Oc2ccc(-c3cnc4c(CN5CCCC5)cccn34)cc2)C(=O)C[C@@H](Cc2ccccc2)C(=O)N(C)[C@@H](C)CNC(=O)C[C@H](Cc2ccc(Cl)cc2)N(C)C1=O [Compound 302] | 54.00 | 3.5 | –
COC[C@@H]1NC(=O)[C@H](C)N(Cc2ccc(Cl)cc2Oc2ccc(-c3cnc(CN4CCCC4)n3CCF)cc2)C(=O)C[C@@H](Cc2ccccc2)C(=O)N(C)[C@@H](C)CNC(=O)C[C@H](Cc2ccc(Cl)cc2)N(C)C1=O [Compound 303, (2S,5S,8S,13S,16R)-16-benzyl-1-(4-chloro-2-(4-(1-(2-fluoroethyl)-2-(pyrrolidin-1-ylmethyl)-1H-imidazol-5-yl)phenoxy)benzyl)-8-(4-chlorobenzyl)-5-(methoxymethyl)-2,7,13,14-tetramethyl-1,4,7,11,14-pentaazacyclooctadecane-3,6,10,15,18-pentaone] | 52.60 | 2.9 | –

More lines, main results first:

Max % inhibition [2] [%] | IC50 [2] [nM] | Structure (SMILES) | also measured
102.15 | 2.6 | C=CC[C@@H]1CC(=O)N(Cc2ccc(Cl)cc2Oc2ccc(-c3cnc(CN(C)C)n3C)cc2)[C@@H](C)C(=O)N[C@@H](COC)C(=O)N(C)[C@@H](Cc2ccc(Cl)cc2)CC(=O)NC[C@H](C)N(C)C1=O [Compound 44, (2S,5S,8S,13S,16R)-16-allyl-1-(4-chloro-2-(4-(2-((dimethylamino)methyl)-1-methyl-1H-imidazol-5-yl)phenoxy)benzyl)-8-(4-chlorobenzyl)-5-(methoxymethyl)-2,7,13,14-tetramethyl-1,4,7,11,14-pentaaza cyclooctadecane-3,6,10,15,18-pentaone] | ring closure, isolated yield ([1]; from (3S,6S,9S,14S,17R)-17-allyl-1-(4-chloro-2-(4-(2-((dimethylamino)methyl)-1-methyl-1H-imidazol-5-yl)phenoxy)phenyl)-9-(4-chlorobenzyl)-6-(methoxymethyl)-3,8,14,15-tetramethyl-4,7,11,16-tetraoxo-2,5,8,12,15-pentaazanonadecan-19-oic acid, 45.0 °C): 26%
96.86 | 11.5 | C[C@H]1CNC(=O)C[C@H](Cc2ccc(Cl)cc2)N(C)C(=O)[C@H](CC(=O)OC(C)(C)C)NC(=O)[C@H](C)N(Cc2ccc(Cl)cc2Oc2ccc(-c3cnc(CN(C)C)n3C)cc2)C(=O)C[C@@H](Cc2ccccc2)C(=O)N1C [Compound 185, tert-butyl 2-((2S,5S,8S,13S,16R)-16-benzyl-1-(4-chloro-2-(4-(2-((dimethylamino)methyl)-1-methyl-1H-imidazol-5-yl)phenoxy)benzyl)-8-(4-chlorobenzyl)-2,7,13,14-tetramethyl-3,6,10,15,18-pentaoxo-1,4,7,11,14-pentaazacyclooctadecan-5-yl)acetate] | ring closure, isolated yield ([1]; from (3S,6S,9S,14S,17R)-17-benzyl-6-(2-(tert-butoxy)-2-oxoethyl)-1-(4-chloro-2-(4-(2-((dimethyl amino)methyl)-1-methyl-1H-imidazol-5-yl)phenoxy)phenyl)-9-(4-chlorobenzyl)-3,8,14,15-tetramethyl-4,7,11,16-tetraoxo-2,5,8,12,15-pentaazanonadecan-19-oic acid, 1.85 mM, 45.0 °C): 46%
95.40 | 3.3 | COC[C@@H]1NC(=O)[C@H](C)N(Cc2ccc(Cl)cc2Oc2ccc(-c3cnc(CN4CCCC4)n3C)c(F)c2F)C(=O)C[C@@H](Cc2ccccc2)C(=O)N(C)[C@@H](C)CNC(=O)C[C@H](Cc2ccc(Cl)cc2)N(C)C1=O [Compound 299, (2S,5S,8S,13S,16R)-16-benzyl-1-(4-chloro-2-(2,3-difluoro-4-(1-methyl-2-(pyrrolidin-1-ylmethyl)-1H-imidazol-5-yl)phenoxy)benzyl)-8-(4-chlorobenzyl)-5-(methoxymethyl)-2,7,13,14-tetramethyl-1,4,7,11,14-pentaazacyclooctadecane-3,6,10,15,18-pentaone] | –
80.60 | 2.1 | CCn1c(-c2ccc(Oc3cc(Cl)ccc3CN3C(=O)C[C@@H](Cc4ccccc4)C(=O)N(C)[C@@H](C)CNC(=O)C[C@H](Cc4ccc(Cl)cc4)N(C)C(=O)[C@H](COC)NC(=O)[C@@H]3C)cc2)cnc1CN1CCCC1 [Compound 300, (2S,5S,8S,13S,16R)-16-benzyl-1-(4-chloro-2-(4-(1-ethyl-2-(pyrrolidin-1-ylmethyl)-1H-imidazol-5-yl)phenoxy)benzyl)-8-(4-chlorobenzyl)-5-(methoxymethyl)-2,7,13,14-tetramethyl-1,4,7,11,14-pentaazacyclooctadecane-3,6,10,15,18-pentaone] | –
54.20 | 3.9 | COC[C@@H]1NC(=O)[C@H](C)N(Cc2ccc(Cl)cc2Oc2ccc(-c3cncc(CN4CCCC4)c3C)cc2)C(=O)C[C@@H](Cc2ccccc2)C(=O)N(C)[C@@H](C)CNC(=O)C[C@H](Cc2ccc(Cl)cc2)N(C)C1=O [Compound 301, (2S,5S,8S,13S,16R)-16-benzyl-1-(4-chloro-2-(4-(4-methyl-5-(pyrrolidin-1-ylmethyl)pyridin-3-yl)phenoxy)benzyl)-8-(4-chlorobenzyl)-5-(methoxymethyl)-2,7,13,14-tetramethyl-1,4,7,11,14-pentaazacyclooctadecane-3,6,10,15,18-pentaone] | –
88.80 | 0.6 | COC[C@@H]1NC(=O)[C@H](CCCN)N(Cc2ccc(Cl)cc2Oc2ccc(-c3cnc(CN(C)C)n3C)cc2)C(=O)C[C@@H](Cc2ccccc2)C(=O)N(C)[C@H]2CCCC[C@@H]2NC(=O)C[C@H](Cc2ccc(Cl)cc2)N(C)C1=O [Compound 304, (4S,7S,10S,14R,16aS,20aS)-10-(3-aminopropyl)-14-benzyl-11-(4-chloro-2-(4-(2-((dimethylamino)methyl)-1-methyl-1H-imidazol-5-yl)phenoxy)benzyl)-4-(4-chlorobenzyl)-7-(methoxymethyl)-5,16-dimethylhexadecahydrobenzo[l][1,4,7,11,14]pentaazacyclooctadecine-2,6,9,12,15(3H)-pentaone] | –
